# In PMC4503722, “Novel Phenotypic Outcomes Identified for a Public Collection of Approved Drugs from a Publicly Accessible Panel of Assays” (PLoS ONE, 2015):
# Read-outs that look alike come from different tables or passages of the source.
# Experiments:
# Experiment in all cases: cells
# SW480 = type: cell-based
# DLD-1 = type: cell-based
# RKO = type: cell-based
# NCI-H716 cells = type: cell-based, Human
# Colo320 = type: cell-based
# [1] = system: HCT116 cells treated with a GSK3β inhibitor; type: cell-based
# HCT116 = type: cell-based
# HeLa cells = type: cell-based; settings: read-out: CellCycle G2/M
# INS-1E cells = type: cell-based, rat
# [2] = system: endothelial tube formation in co-cultures of ECFCs and ADSCs treated with VEGF; type: cell-based, human
# SNU-C1 = type: cell-based
# HT-29 = type: cell-based
# [3] = system: nuclear β-catenin in C2C12 cells; type: cell-based
# [4] = Homo sapiens, HT-29, read-out: Basal_Viability ATP HT-29
# [5] = Homo sapiens, SW480, basal, SW480, read-out: Basal_Viability ATP SW480
# [6] = Homo sapiens, DLD-1, basal, DLD-1, read-out: Basal_Viability ATP DLD-1
# [7] = Homo sapiens; basal; RKO; read-out: Basal_Viability ATP RKO
# [8] = Homo sapiens, NCI-H716; read-out: GLP 1 Secretion
# [9] = Homo sapiens; basal; Colo 320; read-out: Basal_Viability ATP Colo 320
# [10] = Homo sapiens, HCT-116, HCT116 pretreated with GSK3b inhibitor, read-out: GSK3b inh pretreated_Viability ATP HCT116
# [11] = Homo sapiens, HCT-116, basal, HCT116, read-out: Basal_Viability ATP HCT116
# [12] = Homo sapiens, HeLa, S2 Table, HeLa, 20 = no response at highest concentration
# [13] = Rattus norvegicus, INS-1E; read-out: Insulin Secretion
# [14] = Homo sapiens; read-out: Anti-Angiogenesis
# [15] = Homo sapiens, SNU-C1, basal, SNU-C1, read-out: Basal_Viability ATP SNU-C1
# [16] = Homo sapiens, basal, HT-29, read-out: Basal_Viability ATP HT-29
# [17] = Mus musculus, C2C12, S2 Table; module primary assay; 20 / 20.1 codes per legend; read-out: Wnt Pathway
compound,measurement,setting,value
"O=Cc1ccc(O)c(O)c1O [2,3,4-Trihydroxybenzaldehyde]",IC50,"SW480; Homo sapiens, SW480, read-out: Basal_Viability ATP SW480",11300 nM
same,IC50,"DLD-1; Homo sapiens, DLD-1, read-out: Basal_Viability ATP DLD-1",> 20000 nM
same,IC50,"RKO; Homo sapiens, RKO, read-out: Basal_Viability ATP RKO",6230 nM
same,EC50,"NCI-H716 cells; Homo sapiens, NCI-H716, read-out: GLP 1 Secretion",> 10000 nM
same,IC50,"Colo320; Homo sapiens, COLO 320, read-out: Basal_Viability ATP Colo 320",9080 nM
same,IC50,"[1]; Homo sapiens, HCT-116, read-out: GSK3b inh pretreated_Viability ATP HCT116",141 nM
same,IC50,"HCT116; Homo sapiens, HCT-116, read-out: Basal_Viability ATP HCT116",> 20000 nM
same,EC50,"HeLa cells; Homo sapiens, HeLa",> 10000 nM
same,EC50,"INS-1E cells; Rattus norvegicus, INS-1E, read-out: Insulin Secretion",> 10000 nM
same,IC50,"[2]; Homo sapiens, read-out: Anti-Angiogenesis",> 10000 nM
same,IC50,"SNU-C1; Homo sapiens, SNU-C1, read-out: Basal_Viability ATP SNU-C1",> 20000 nM
same,IC50,HT-29; [4],> 20000 nM
same,EC50,"[3]; Mus musculus, C2C12, read-out: Wnt Pathway",> 10000 nM
Oc1ccc([C@@H]2CNCc3c2ccc(O)c3O)cc1O [Zelandopam],IC50,SW480; read-out: Basal_Viability ATP SW480,> 20000 nM
same,IC50,DLD-1; read-out: Basal_Viability ATP DLD-1,> 20000 nM
same,IC50,RKO; read-out: Basal_Viability ATP RKO,33.2 nM
same,EC50,NCI-H716 cells; read-out: GLP 1 Secretion,5950 nM
same,IC50,Colo320; read-out: Basal_Viability ATP Colo 320,466 nM
same,IC50,[1]; read-out: GSK3b inh pretreated_Viability ATP HCT116,188 nM
same,IC50,HCT116; read-out: Basal_Viability ATP HCT116,> 20000 nM
same,EC50,HeLa cells,> 10000 nM
same,EC50,INS-1E cells; read-out: Insulin Secretion,> 10000 nM
same,IC50,[2]; read-out: Anti-Angiogenesis,> 10000 nM
same,IC50,SNU-C1; read-out: Basal_Viability ATP SNU-C1,> 20000 nM
same,IC50,HT-29; read-out: Basal_Viability ATP HT-29,> 20000 nM
same,EC50,[3]; read-out: Wnt Pathway,> 10000 nM
Fc1ccc(C(OCCN2CCN(CCCc3ccccc3)CC2)c2ccc(F)cc2)cc1,IC50,"SW480; basal, SW480, read-out: Basal_Viability ATP SW480",2070 nM
same,IC50,"DLD-1; basal, DLD-1, read-out: Basal_Viability ATP DLD-1",903 nM
same,IC50,RKO; basal; RKO; read-out: Basal_Viability ATP RKO,113 nM
same,EC50,NCI-H716 cells; S2 Table; module primary assay; 20 / 20.1 codes per legend; read-out: GLP 1 Secretion,> 10000 nM
same,IC50,Colo320; basal; Colo 320; read-out: Basal_Viability ATP Colo 320,> 20000 nM
same,IC50,"[1]; HCT116 pretreated with GSK3b inhibitor, read-out: GSK3b inh pretreated_Viability ATP HCT116",2850 nM
same,IC50,"HCT116; basal, HCT116, read-out: Basal_Viability ATP HCT116",4870 nM
same,EC50,"HeLa cells; S2 Table, HeLa, 20 = no response at highest concentration",> 10000 nM
same,EC50,INS-1E cells; S2 Table; module primary assay; 20 / 20.1 codes per legend; read-out: Insulin Secretion,> 10000 nM
same,IC50,"[2]; S2 Table; module primary assay; 20 = no response at highest concentration, 20.1 = inactive in single concentration testing; read-out: Anti-Angiogenesis",> 10000 nM
same,IC50,"SNU-C1; basal, SNU-C1, read-out: Basal_Viability ATP SNU-C1",1820 nM
same,IC50,"HT-29; basal, HT-29, read-out: Basal_Viability ATP HT-29",1490 nM
same,EC50,[3]; S2 Table; module primary assay; 20 / 20.1 codes per legend; read-out: Wnt Pathway,> 10000 nM
CCCCC(CC)CNC(=N)NC(=N)NCCCCCCNC(=N)NC(=N)NCC(CC)CCCC (stereo not shown) [alexidine],IC50,SW480; [5],333 nM
same,IC50,DLD-1; [6],19.7 nM
same,IC50,RKO; [7],223 nM
same,EC50,NCI-H716 cells; [8],> 10000 nM
same,IC50,Colo320; [9],4.1 nM
same,IC50,[1]; [10],396 nM
same,IC50,HCT116; [11],710 nM
same,EC50,HeLa cells; [12],> 10000 nM
same,EC50,INS-1E cells; [13],> 10000 nM
same,IC50,[2]; [14],408 nM
same,IC50,SNU-C1; [15],94.1 nM
same,IC50,HT-29; [16],30.2 nM
same,EC50,[3]; [17],> 10000 nM
OC[C@H]1O[C@@H](n2cnc3c(S)ncnc32)[C@H](O)[C@@H]1O [Thioinosine],IC50,SW480; [5],28.7 nM
same,IC50,DLD-1; [6],63 nM
same,IC50,RKO; [7],14.4 nM
same,EC50,NCI-H716 cells; [8],> 10000 nM
same,IC50,Colo320; [9],1060 nM
same,IC50,[1]; [10],504 nM
same,IC50,HCT116; [11],28.6 nM
same,EC50,HeLa cells; [12],> 10000 nM
same,EC50,INS-1E cells; [13],> 10000 nM
same,IC50,[2]; [14],1420 nM
same,IC50,SNU-C1; [15],2180 nM
same,IC50,HT-29; [16],118 nM
same,EC50,[3]; [17],> 10000 nM
CN(C)CCOC(c1ccccc1)c1ccc(Br)cc1 (stereo not shown) [Bromazine],IC50,"SW480; Homo sapiens, SW480, basal, read-out: Basal_Viability ATP SW480",> 20000 nM
same,IC50,"DLD-1; Homo sapiens, DLD-1, basal, read-out: Basal_Viability ATP DLD-1",> 20000 nM
same,IC50,"RKO; Homo sapiens, RKO; read-out: Basal_Viability ATP RKO",> 20000 nM
same,EC50,NCI-H716 cells; Homo sapiens; IC50 / EC50; NCI-H716; read-out: GLP 1 Secretion,> 10000 nM
same,IC50,"Colo320; Homo sapiens, COLO 320; read-out: Basal_Viability ATP Colo 320",> 20000 nM
same,IC50,"[1]; Homo sapiens, HCT-116, GSK3b inhibitor pretreated, read-out: GSK3b inh pretreated_Viability ATP HCT116",> 20000 nM
same,IC50,"HCT116; Homo sapiens, HCT-116, basal, read-out: Basal_Viability ATP HCT116",> 20000 nM
same,EC50,"HeLa cells; Homo sapiens, HeLa, IC50 / EC50, HeLa",> 10000 nM
same,EC50,INS-1E cells; Rattus norvegicus; IC50 / EC50; INS-1E; read-out: Insulin Secretion,2770 nM
same,IC50,"[2]; Homo sapiens, IC50 / EC50; endothelial tube area, ADSC/ECFC co-culture; read-out: Anti-Angiogenesis",> 10000 nM
same,IC50,"SNU-C1; Homo sapiens, SNU-C1, basal, read-out: Basal_Viability ATP SNU-C1",3100 nM
same,IC50,HT-29; [4],17000 nM
same,EC50,"[3]; Mus musculus, C2C12, IC50 / EC50; C2C12 beta-catenin translocation; read-out: Wnt Pathway",> 10000 nM
O=C1C2CC=CCC2C(=O)N1SC(Cl)(Cl)Cl (stereo not shown) [captan],IC50,SW480; [5],78.8 nM
same,IC50,DLD-1; [6],348 nM
same,IC50,RKO; [7],402 nM
same,EC50,NCI-H716 cells; [8],> 10000 nM
same,IC50,Colo320; [9],306 nM
same,IC50,[1]; [10],2210 nM
same,IC50,HCT116; [11],1760 nM
same,EC50,HeLa cells; [12],> 10000 nM
same,EC50,INS-1E cells; [13],> 10000 nM
same,IC50,[2]; [14],> 10000 nM
same,IC50,SNU-C1; [15],903 nM
same,IC50,HT-29; [16],500 nM
same,EC50,"[3]; Mus musculus, C2C12; read-out: Wnt Pathway",511 nM
